Activity calls are given as the source filed them.
What was measured:
[1] = target: Lysosomal acid glucosylceramidase (Homo sapiens, UniProt P04062); assay: Dose response cell-based high throughput screening assay to identify enhancers of beta-glucosidase activity. [Related pubchem assays: 784 ]; assay type: functional
[2] = target: Sphingosine 1-phosphate receptor 2 (Homo sapiens, UniProt O95136); assay: Dose Response Cell Based Assay for Agonists of the S1P2 Receptor of Purchased Analogues. [Related pubchem assays: 729, 843, 854, 736 ]; assay type: functional
Sphingosine 1-phosphate receptor 2, sequence (O95136 whole entry): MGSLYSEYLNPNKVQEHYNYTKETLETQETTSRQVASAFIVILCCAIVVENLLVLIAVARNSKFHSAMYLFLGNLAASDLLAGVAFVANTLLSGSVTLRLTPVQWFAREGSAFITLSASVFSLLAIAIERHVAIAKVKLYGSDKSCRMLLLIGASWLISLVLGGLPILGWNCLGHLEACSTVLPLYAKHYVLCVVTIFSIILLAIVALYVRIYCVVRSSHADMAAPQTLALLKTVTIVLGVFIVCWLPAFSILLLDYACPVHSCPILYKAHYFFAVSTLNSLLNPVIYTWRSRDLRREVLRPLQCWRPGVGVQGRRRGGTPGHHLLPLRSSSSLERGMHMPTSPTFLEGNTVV

[3] = target: T1, Eukaryotic translation initiation factor 2-alpha kinase 3 (Homo sapiens, UniProt Q9NZJ5); assay: Dose response cell-based high-throughput screening assay to measure PERK inhibition. [Related pubchem assays: 1416 ]; assay type: functional
T1 sequence (Q9NZJ5 whole entry): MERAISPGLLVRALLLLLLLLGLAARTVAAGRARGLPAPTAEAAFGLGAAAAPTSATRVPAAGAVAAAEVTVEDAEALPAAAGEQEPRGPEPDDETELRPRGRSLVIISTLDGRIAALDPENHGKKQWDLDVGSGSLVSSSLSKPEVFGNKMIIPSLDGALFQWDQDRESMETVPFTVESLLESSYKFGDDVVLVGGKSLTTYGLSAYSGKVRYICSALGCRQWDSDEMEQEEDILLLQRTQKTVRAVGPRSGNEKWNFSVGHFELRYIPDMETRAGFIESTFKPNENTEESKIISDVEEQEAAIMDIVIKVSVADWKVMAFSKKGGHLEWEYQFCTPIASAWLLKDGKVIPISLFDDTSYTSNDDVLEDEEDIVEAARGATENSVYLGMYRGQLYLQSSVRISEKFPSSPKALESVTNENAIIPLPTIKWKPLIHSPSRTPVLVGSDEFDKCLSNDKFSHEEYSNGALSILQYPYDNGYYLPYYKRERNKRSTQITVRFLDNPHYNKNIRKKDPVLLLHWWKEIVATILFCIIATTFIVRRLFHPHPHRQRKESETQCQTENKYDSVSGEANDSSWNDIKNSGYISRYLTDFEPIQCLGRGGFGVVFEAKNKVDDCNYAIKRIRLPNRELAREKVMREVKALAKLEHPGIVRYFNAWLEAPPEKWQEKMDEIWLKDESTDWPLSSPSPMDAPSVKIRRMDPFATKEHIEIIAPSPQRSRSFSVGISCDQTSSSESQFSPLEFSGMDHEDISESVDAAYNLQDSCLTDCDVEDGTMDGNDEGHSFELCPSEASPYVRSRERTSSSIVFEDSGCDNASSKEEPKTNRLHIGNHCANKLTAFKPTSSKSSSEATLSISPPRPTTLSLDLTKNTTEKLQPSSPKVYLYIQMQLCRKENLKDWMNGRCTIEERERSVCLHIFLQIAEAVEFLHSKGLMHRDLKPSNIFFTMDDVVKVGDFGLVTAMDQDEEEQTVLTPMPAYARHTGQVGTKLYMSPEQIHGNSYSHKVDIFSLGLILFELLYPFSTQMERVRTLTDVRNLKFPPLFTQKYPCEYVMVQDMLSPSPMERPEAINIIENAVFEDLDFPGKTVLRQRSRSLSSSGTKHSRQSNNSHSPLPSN

[4] = target: T1, Eukaryotic translation initiation factor 2-alpha kinase 3; assay: Counterscreen assay for PERK inhibitors: Dose response cell-based high throughput screening assay to measure inhibition of PERK at 6 hours. [Related pubchem assays: 1522, 1416 ]; assay type: functional
Streptococcus = assay: Luminescence Microorganism-Based Dose Response Follow up to Identify Compounds Cytotoxic to Streptococcus. [Related pubchem assays: 1677 (Project Summary), 1915, 1914, 1902 (Retest at Dose), 1900 (Counter Screen), 1662 (Primary HTS)]; assay type: functional, organism-based
[5] = target: Mothers against decapentaplegic homolog 3 (Homo sapiens, UniProt P84022); assay: blockers of Smad3 complex formation in lysate – cell lysate, secondary confirmation, chemiluminescent ELISA, HEK293 lysate, dose response (AID 1058); assay type: functional
Mothers against decapentaplegic homolog 3, sequence (P84022 whole entry): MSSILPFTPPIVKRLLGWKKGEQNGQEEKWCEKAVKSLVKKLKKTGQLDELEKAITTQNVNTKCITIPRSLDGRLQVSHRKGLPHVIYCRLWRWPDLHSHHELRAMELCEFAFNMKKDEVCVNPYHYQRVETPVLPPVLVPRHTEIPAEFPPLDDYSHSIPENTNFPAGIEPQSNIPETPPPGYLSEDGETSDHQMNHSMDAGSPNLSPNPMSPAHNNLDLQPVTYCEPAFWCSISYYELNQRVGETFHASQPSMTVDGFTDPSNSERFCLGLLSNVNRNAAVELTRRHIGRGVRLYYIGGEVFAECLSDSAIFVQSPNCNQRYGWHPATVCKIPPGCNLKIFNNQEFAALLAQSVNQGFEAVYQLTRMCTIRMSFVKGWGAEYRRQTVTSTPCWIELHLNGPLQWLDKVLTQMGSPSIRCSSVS

Estrogen receptor = target: T2, Estrogen receptor (Homo sapiens, UniProt P03372); assay: blockers of SRC-3 recruitment to ERα – biochemical, ELISA, streptavidin-HRP readout, orthogonal assay, confirmation (AID 1079)
T2 sequence (P03372 whole entry): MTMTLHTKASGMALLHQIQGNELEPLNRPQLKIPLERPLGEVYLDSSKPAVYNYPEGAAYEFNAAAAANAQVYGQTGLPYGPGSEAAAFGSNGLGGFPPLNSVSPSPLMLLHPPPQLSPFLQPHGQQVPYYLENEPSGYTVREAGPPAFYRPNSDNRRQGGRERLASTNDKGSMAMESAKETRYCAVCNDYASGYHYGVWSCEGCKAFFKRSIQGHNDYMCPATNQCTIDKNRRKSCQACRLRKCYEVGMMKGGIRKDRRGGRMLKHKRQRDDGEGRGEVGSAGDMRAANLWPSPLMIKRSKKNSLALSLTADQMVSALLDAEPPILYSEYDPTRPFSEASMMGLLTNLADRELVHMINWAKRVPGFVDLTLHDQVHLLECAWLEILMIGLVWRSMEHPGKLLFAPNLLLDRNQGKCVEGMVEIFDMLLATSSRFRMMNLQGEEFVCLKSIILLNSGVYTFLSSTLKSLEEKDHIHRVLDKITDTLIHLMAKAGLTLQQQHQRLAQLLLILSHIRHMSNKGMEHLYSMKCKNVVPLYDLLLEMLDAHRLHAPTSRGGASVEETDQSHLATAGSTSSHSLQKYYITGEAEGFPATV

[6] = target: T3, Photoreceptor-specific nuclear receptor (Homo sapiens, UniProt Q9Y5X4); assay type: functional
T3 sequence (Q9Y5X4 whole entry): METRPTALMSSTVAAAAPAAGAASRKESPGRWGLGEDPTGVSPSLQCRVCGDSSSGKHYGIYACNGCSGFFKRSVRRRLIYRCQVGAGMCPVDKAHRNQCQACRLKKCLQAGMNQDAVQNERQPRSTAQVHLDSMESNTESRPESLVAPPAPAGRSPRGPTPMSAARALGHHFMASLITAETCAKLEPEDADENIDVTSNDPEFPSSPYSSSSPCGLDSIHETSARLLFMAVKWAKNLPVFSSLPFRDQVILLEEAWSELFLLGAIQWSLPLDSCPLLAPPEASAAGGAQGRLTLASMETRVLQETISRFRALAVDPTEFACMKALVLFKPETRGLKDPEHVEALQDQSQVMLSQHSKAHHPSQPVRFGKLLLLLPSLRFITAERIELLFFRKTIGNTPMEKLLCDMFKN

[7] = target: Peroxisome proliferator-activated receptor gamma/Nuclear receptor corepressor 2 (Homo sapiens, UniProt P37231+Q9Y618); assay type: functional
[8] = target: 5-hydroxytryptamine receptor 1E (Homo sapiens, UniProt P28566); assay: Counterscreen assay for S1P3 antagonists: Dose response cell-based high throughput screening assay to identify antagonists of the 5-Hydroxytryptamine Receptor Subtype 1E (5HT1E). [Related pubchem assays: 1429, 485 ]; assay type: functional
[9] = target: Sphingosine 1-phosphate receptor 3 (Homo sapiens, UniProt Q99500); assay: Dose response cell-based high throughput screening assay for antagonists of the Sphingosine 1-Phosphate Receptor 3 (S1P3). [Related pubchem assays: 1429, 485 ]; assay type: functional
Sphingosine 1-phosphate receptor 3, sequence (Q99500 whole entry): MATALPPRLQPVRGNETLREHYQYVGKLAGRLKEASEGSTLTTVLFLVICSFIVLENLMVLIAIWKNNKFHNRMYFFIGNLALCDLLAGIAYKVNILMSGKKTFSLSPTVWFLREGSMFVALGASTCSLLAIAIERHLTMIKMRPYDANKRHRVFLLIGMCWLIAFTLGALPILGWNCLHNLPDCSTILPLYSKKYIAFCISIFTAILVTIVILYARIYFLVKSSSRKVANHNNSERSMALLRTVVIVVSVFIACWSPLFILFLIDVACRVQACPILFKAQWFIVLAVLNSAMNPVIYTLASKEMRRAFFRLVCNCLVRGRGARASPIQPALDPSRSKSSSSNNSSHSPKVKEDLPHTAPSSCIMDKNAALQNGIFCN

[10] = target: T4, Tyrosine-protein phosphatase non-receptor type 7 (Homo sapiens, UniProt P35236); assay type: functional
T4 sequence (P35236 whole entry): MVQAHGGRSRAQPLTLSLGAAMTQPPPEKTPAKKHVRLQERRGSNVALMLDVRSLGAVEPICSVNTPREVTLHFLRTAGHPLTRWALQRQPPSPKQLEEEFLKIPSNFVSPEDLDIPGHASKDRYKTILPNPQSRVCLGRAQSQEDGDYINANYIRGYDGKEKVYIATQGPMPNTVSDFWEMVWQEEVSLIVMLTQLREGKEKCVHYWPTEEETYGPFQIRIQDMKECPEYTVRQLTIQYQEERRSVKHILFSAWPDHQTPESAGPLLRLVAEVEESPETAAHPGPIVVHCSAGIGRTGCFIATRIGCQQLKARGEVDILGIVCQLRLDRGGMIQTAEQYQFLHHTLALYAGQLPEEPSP

[11] = target: Glyceraldehyde-3-phosphate dehydrogenase (Homo sapiens, UniProt P04406)
Glyceraldehyde-3-phosphate dehydrogenase, sequence (P04406 whole entry): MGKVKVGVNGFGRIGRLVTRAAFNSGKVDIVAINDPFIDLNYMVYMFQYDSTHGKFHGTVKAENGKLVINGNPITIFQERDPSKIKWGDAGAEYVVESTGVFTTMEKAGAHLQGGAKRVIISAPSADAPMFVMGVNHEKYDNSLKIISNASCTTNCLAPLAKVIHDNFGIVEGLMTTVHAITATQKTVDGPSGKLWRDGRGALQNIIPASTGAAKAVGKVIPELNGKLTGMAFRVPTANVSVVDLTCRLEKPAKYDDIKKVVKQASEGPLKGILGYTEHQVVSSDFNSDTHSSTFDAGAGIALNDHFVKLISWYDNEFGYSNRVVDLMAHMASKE

[12] = target: Heat shock cognate 71 kDa protein (Homo sapiens, UniProt P11142); assay: In Vitro Hsc70 Dose Response Fluorescence Polarization Assay. [Related pubchem assays: 1072 ]
[13] = target: Heat shock 70 kDa protein 1A (Homo sapiens, UniProt P0DMV8); assay: inhibition of Hsp70 binding activity – biochemical, fluorescence polarization, SAR follow-up (AID 1072)
Heat shock 70 kDa protein 1A, sequence (P0DMV8 whole entry): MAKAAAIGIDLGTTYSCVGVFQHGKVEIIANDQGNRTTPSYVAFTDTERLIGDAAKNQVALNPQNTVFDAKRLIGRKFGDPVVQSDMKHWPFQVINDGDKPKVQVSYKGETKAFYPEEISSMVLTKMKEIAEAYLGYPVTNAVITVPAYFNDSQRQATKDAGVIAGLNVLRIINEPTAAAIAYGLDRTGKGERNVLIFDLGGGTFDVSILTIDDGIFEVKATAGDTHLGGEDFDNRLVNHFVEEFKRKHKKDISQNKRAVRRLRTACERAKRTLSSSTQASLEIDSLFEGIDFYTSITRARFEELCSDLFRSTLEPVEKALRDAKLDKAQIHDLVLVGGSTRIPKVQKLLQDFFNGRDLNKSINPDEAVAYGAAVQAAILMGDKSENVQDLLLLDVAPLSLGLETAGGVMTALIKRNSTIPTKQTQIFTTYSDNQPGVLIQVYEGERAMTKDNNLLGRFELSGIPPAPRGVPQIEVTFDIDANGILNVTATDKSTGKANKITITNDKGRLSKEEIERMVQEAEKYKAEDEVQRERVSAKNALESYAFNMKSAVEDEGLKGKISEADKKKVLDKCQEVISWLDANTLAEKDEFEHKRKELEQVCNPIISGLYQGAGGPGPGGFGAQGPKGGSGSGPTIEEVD

[14] = target: T5, Dual specificity protein phosphatase 6 (Rattus norvegicus, UniProt Q64346)
T5 sequence (Q64346 whole entry): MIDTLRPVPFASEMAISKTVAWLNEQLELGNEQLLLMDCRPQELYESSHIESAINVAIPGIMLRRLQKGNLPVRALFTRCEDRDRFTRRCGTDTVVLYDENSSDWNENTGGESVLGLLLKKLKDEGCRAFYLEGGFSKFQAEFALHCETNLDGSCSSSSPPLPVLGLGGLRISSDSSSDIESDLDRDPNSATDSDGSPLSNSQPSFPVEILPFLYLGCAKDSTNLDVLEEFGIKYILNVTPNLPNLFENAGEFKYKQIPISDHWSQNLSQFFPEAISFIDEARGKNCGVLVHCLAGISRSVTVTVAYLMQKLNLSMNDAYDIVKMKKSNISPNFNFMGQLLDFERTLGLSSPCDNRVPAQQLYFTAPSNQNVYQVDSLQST

[15] = target: T5, Dual specificity protein phosphatase 6; assay type: functional
[16] = target: Serine/threonine-protein phosphatase PP1-alpha catalytic subunit (Homo sapiens, UniProt P62136); assay: inhibition of protein phosphatase 1 activity – biochemical, fluorescence, dose response (AID 2403);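 note: phosphatase turnover of OMFP into fluorescent 3-O-methylfluorescein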
Serine/threonine-protein phosphatase PP1-alpha catalytic subunit, sequence (P62136 whole entry): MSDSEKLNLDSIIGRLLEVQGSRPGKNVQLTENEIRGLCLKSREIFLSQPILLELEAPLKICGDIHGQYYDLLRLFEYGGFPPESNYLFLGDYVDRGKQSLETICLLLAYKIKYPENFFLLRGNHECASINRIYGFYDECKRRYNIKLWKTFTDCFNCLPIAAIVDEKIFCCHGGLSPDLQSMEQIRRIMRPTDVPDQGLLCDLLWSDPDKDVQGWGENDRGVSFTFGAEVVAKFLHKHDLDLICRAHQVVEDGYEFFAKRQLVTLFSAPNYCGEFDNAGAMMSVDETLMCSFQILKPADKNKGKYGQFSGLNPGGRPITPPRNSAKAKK

[17] = target: Serine/threonine-protein phosphatase (Homo sapiens, UniProt Q9BPW0); assay: Counterscreen for inhibitors of PP1: fluorescence-based biochemical high throughput dose response assay to identify inhibitors of Protein Phosphatase 5 (PP5). [Related pubchem assays: 2034 (Summary (PP5 inhibitors)), 1987 (PP5 inhibitors in singlate), 2235 (PP1 inhibitors in singlate)]
[18] = viability of PTEN-deleted HCT116 cells – cell-based, HCT116 PTEN knockout, dose response (AID 1047); assay type: functional;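 note: HCT116 colon tumor cells with PTEN knocked out; cells exposed to compound for 60 hours before readout; potency for loss of cell viability measured by luminescence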
[19] = viability of HCT116 lacking mutant beta-catenin – cell-based, human colon tumor, dose response (AID 1045); assay type: functional;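 note: HCT116 colon tumor cells with beta catenin knocked out; cells exposed to compound for 60 hours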
[20] = mitochondrial function rescue without frataxin homolog – Friedreich's ataxia, plus single-dose screen, dose response (AID 1465); assay type: functional;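 note: yeast depleted of Yfh1p frataxin homolog grown on glycerol needing respiration; WST-1 tetrazolium dye reduction as measure of cellular dehydrogenase metabolic activity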
[21] = NIH-3T3 fibroblast cytotoxicity, dose response, cytotoxicity control, cell-based, fluorescence, Alamar Blue, secondary assay (AID 2327); assay type: functional;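 note: NIH-3T3 mouse fibroblasts cultured with fluconazole at 8 µg/mL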
cells [22] = assay type: functional, cell-based
[23] = fluconazole-exposed Candida albicans growth modulators – fluorescence, retest, confirmation (AID 2467); assay type: functional, cell-based
[24] = CCR5-tropic HIV-1 fusion blockers – cell-based, CCR5-tropic Env, dose response (AID 2279); assay type: functional
[25] = microbe, parasite or virus in culture; assay type: functional; conditions: Mycobacterium tuberculosis
cells [26] = assay type: functional, cell-based; remark: listed apart in the source
[27] = target: T6, Short transient receptor potential channel 4 (Mus musculus, UniProt Q9QUQ5); assay: block of DAMGO-driven TRPC4 calcium entry – cell-based, HEK293 TRPC4/mu-opioid, Fluo-4 calcium, dose response (AID 434942); assay type: functional;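 note: potency of inhibitors blocking the TRPC4 calcium response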
T6 sequence (Q9QUQ5 whole entry): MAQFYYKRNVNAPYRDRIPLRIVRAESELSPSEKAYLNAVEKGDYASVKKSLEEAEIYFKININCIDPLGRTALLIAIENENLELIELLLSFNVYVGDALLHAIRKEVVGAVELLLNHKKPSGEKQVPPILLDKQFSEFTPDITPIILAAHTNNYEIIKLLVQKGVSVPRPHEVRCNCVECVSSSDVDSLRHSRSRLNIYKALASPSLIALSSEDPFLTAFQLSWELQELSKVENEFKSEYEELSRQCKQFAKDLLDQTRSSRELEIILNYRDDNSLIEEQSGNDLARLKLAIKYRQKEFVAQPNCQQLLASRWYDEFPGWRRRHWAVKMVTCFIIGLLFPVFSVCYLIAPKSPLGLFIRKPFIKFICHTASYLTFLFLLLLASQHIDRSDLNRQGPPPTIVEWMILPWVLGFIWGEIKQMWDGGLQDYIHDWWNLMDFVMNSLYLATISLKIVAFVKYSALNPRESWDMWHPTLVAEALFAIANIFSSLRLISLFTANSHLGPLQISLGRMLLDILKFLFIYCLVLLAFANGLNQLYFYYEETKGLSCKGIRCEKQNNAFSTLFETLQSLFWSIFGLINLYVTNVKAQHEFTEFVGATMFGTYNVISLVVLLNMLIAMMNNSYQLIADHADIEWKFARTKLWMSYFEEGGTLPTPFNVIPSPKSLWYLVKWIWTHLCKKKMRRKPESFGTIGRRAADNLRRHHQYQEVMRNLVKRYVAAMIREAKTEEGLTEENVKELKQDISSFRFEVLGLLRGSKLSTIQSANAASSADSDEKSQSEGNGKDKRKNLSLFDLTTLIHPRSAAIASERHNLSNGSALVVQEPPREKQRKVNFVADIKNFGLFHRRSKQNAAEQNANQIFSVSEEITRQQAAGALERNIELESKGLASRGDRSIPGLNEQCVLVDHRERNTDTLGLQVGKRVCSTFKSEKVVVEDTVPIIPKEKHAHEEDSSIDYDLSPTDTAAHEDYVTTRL

Nonstructural protein 1 = Nonstructural protein 1 (Influenza A virus, UniProt Q194T2); assay type: functional, Influenza A virus (A/California/07/2009(H1N1))
Nonstructural protein 1, sequence (Q194T2 whole entry): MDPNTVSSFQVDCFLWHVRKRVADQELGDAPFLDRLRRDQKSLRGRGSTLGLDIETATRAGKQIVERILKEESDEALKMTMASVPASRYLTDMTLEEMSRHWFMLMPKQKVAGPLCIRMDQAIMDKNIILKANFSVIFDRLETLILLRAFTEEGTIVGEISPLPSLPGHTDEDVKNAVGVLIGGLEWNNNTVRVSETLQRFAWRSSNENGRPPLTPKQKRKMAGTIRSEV

INS1 = assay: INS-1E survival protection against cytokine death – cell-based, luminescence, retest, dose response (AID 449756); assay type: functional; conditions: Rattus norvegicus;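 note: cell death triggered by IL-1 beta plus TNF-alpha plus IFN-gamma mixture; protective hits raise ATP signal compared with cytokine alone wells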
[28] = target: T3, Photoreceptor-specific nuclear receptor; assay type: functional, cell-based
Cytochrome P450 2D6 = Cytochrome P450 2D6 (Homo sapiens, UniProt P10635); assay: qHTS Assay for Inhibitors and Substrates of Cytochrome P450 2D6. [Related pubchem assays: 410 ]; assay type: ADME; conditions: read-out: Potency
Cytochrome P450 2C9 = Cytochrome P450 2C9 (Homo sapiens, UniProt P11712); conditions: Potency
Cytochrome P450 2C9, sequence (P11712 whole entry): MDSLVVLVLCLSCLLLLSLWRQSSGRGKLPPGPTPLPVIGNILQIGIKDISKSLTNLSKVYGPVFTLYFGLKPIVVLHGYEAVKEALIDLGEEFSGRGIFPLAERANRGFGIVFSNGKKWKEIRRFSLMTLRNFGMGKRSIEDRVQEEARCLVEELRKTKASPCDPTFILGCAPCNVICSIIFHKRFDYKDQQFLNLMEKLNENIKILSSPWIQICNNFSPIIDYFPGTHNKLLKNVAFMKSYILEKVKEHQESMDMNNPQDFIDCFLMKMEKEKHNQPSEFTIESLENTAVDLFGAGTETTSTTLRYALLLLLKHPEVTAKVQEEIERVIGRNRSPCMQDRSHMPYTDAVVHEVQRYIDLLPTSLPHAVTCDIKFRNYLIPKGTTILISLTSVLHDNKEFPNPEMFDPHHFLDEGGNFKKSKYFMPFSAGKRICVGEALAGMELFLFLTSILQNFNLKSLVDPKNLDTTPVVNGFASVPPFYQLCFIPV

CC1=C(C(=O)Nc2cccnc2)C(c2ccncc2)n2nnnc2N1 (centres undefined)
EC50 [1]: > 50 µM (not active)

Cc1cc(C(=O)COC(=O)C2CSC3(C)CCC(=O)N23)c(C)n1Cc1ccccc1 (centres undefined)
EC50 [2]: > 30 µM (not active)

Cn1nc(C(F)(F)F)c(-c2ccccc2)c1NC(=O)CCC(=O)O
EC50 [3]: > 55.7 µM (not active) | EC50 [4]: > 55.7 µM (not active)

O=C(CSc1ccncc1)N1c2ccccc2Sc2ccccc21
EC50 (Streptococcus): > 500 µM (not active)

Oc1cc2c(cc1C(c1ccc3c(c1)OCO3)N1CCOCC1)OCO2 (centres undefined)
IC50 [5]: > 40 µM (not active)

O=C(CCCCCn1c(=S)[nH]c2ccccc2c1=O)N1CCN(c2ccc(C(F)(F)F)cc2)CC1
IC50 (Estrogen receptor): 42.8 µM (not active)

CCNC(=S)Nc1nc2c(cc1C(=O)OCC)CCCC2
IC50 [6]: > 39.8 µM (not active) | IC50 [7]: 32.7 µM (not active)

Cc1ccc(NC(=O)C(OC(=O)c2ccc(F)cc2)c2ccccc2)cc1Cl (centres undefined)
IC50 [8]: 15.6 µM (not active) | IC50 [9]: 6.4 µM (active)

O=C(O)C1Nc2ccc([N+](=O)[O-])cc2C2C=CCC12 (centres undefined)
IC50 [10]: 7.58 µM (active) | IC50 [11]: 97.4 µM (active) | IC50 [12]: 48.4 µM (active) | IC50 [13]: 6.06 µM (active) | IC50 [14]: 52 µM (active) | IC50 [15]: 47.5 µM (active)

COc1ccc2c(Cl)c(C(=O)N/N=C/c3ccc4c(c3)OCO4)sc2c1
IC50 [16]: 5.11 µM (active) | IC50 [17]: > 67 µM (not active) | EC50 [18]: 20.7 µM (active) | EC50 [19]: 25.4 µM (active)

COc1cccc(N/N=C2\C(=O)Nn3c2nc2c(c3=O)CCC2)c1
EC50 [20]: > 100 µM (active)

Brc1ccc(N/N=C(/N=Nc2nn[nH]n2)c2ccccc2)cc1
EC50 [21]: 2.55 µM (inconclusive) | EC50 (cells [22]): 86.5 µM (active) | EC50 [23]: > 38 µM (not active) | IC50 [24]: 9.87 µM (active) | CC50 [25]: 7.7 µM (active) | EC50 (cells [26]): 47.2 µM (active) | EC50 [27]: 7.5 µM (active) | IC50 (Nonstructural protein 1): 6 µM (active) | AC50 (INS1): 1.77 µM (active) | IC50 [28]: 6.49 µM (active)

CN(C)c1ccc(C(=C2C=CC(=[N+](C)C)C=C2)c2c(O)c(S(=O)(=O)[O-])cc3cc(S(=O)(=O)O)ccc23)cc1
AC50 (Cytochrome P450 2D6): 3.16 µM (inconclusive) | AC50 (Cytochrome P450 2C9): 2.51 µM (inconclusive)
